“And” between values parts separate entries of the source, which are not always exact repeats. Equal values may be shown once.
Columns and labels:
[1] = system: p3 locus; experiment: Ms-SNuPE quantitation of DNA methylation in 10T1/2 cells; type: cell-based, mouse; conditions: 24 hours, control 86
Description: (§1) The average methylation at defined CpG sites was quantitated using a Ms-SNuPE assay, as described by Gonzalgo and Jones (Nucleic Acids Res. 25:2529-2531, 1997) and U.S. Pat. No. 6,251,594. Briefly, genomic DNA (˜4 μg) was digested overnight with 4 units of EcoRI (Boehringer Mannheim) (p16 promoter/exon 1 and p16 exon 2; FIG. 9A) or with 4 units of RsaI (Boehringer Mannheim) (P3; FIG. 9B) to cut outside the region of interest.
(§2) After standard treatment with sodium bisulfite, a PCR product of the region was generated as template for top-strand methylation analysis. The sequences of the primers used for bisulfite-treated DNA amplification were as follows: […]
P3: 95° C. for 2 minutes, 95° C. for 1 minute, 50° C. for 50 seconds, and 72° C. for 1 minute for 40 cycles, with a final extension at 72° C. for 10 minutes.
(§3) Duplicates of 4 μl of template were then added to 6 μl of mixture consisting of 1× PCR buffer, 1 μM final concentration primers, 1 μCi of [^32P]dCTP or dTTP, and 1 unit 1:1 Taq/TaqStart antibody (Clontech, Palo Alto, Calif.). Single nucleotide extension involved incubation at 95° C. for 1 minute, then 50° C. for 2 minutes, and finally 72° C. for 1 minute (p16 promoter/exon1 and P16 exon 2) and 95° C. for 1 minute, then 46° C. for 30 seconds, and finally 72° C. for 20 seconds (P3). The sequences for SNuPE primers were as follows: […]
(§4) After briefly spinning down the tubes, 4 μl of stop solution were added to the 10-μl reaction volume, and the samples were boiled for 5 minutes at 95° C. before loading 1.5 μl onto a 15% denaturing polyacrylamide gel (7 M urea). The gel was run at 90 W for 1.5 hours and then dried at 80° C. for 40 minutes. The gel was exposed to a phosphorimaging cassette for quantitation of the ratio of [^32P]dCTP versus [^32P]dTTP incorporation, and the quantitation of the percent methylation was averaged from three separate CpG sites. The gel was then exposed to BioMax MR film (Kodak) to record experimental results.

[2] = system: 10T1/2 cells; experiment: Colony-formation assay (plating efficiency) in 10T1/2 cells; type: cell-based, mouse; conditions: for Ave. Plating Efficiency (%): 250 cells, stained after 14-16 days, control 22; for decrease in plating deficiency (cytotoxicity) / cell death observed: 10T1/2 cells; for cell death observed: 0.3 μM 5-Aza-CdR, 3 μM 5-Aza-CR, 30 μM Zebularine
Description: The percentage cell survival was assessed by dividing the mean colony number on the treated plates divided by the mean colony number on the untreated plates ×100.

[3] = system: p16 gene expression in T24 cells; experiment: RT-PCR analysis of p16 expression in T24 cells; type: cell-based, human
Description: The T24 cell line was obtained from the American Type Culture Collection (Rockville, Md.) and cultured in DMEM supplemented with 10% heat-inactivated fetal calf serum and 100 U/ml penicillin-streptomycin. Cultures were grown in a humidified incubator at 37° C. in an atmosphere of 5% CO2 in air.
Cells were plated (3×10^5 cells/100-mm dish) and treated 24 hours later with the indicated concentrations of compounds. The medium was either changed 24 hours or 48 hours after drug treatment.
DNA and RNA were isolated three days after treatment using the NucleoBond RNA/DNA Midi Kit (Clontech Laboratories, Inc., Palo Alto, Calif.).
Total RNA (˜10 μg) was reverse-transcribed using the following reagents: 100 units RNAsin (Promega Corp., Madison, Wis.), 0.1 M DTT (Life Technologies, Inc.), 1000 units of MMLV-RT (Life Technologies, Inc.), 1 mM deoxynucleotide triphosphates (Boehringer Mannheim, Germany), 75 μg/ml BSA, 1× MMLV-RT buffer (Life Technologies, Inc.), and 0.025 ODU Random Hexamers (Amersham-Pharmacia Biotech, Piscataway, N.J.). The reaction mixture was incubated for 10 minutes at 25° C., 45 minutes at 42° C., 3 minutes at 90° C., and chilled for 5 minutes at 4° C., during which time 1.25 μl of MMLV-RT (200 U/μl) were added and the sample then incubated for 45 minutes at 42° C., 10 minutes at 75° C., and stored at −20° C.
cDNA was amplified with primers specific for either p16 or GAPDH. Briefly, PCR reactions were performed in 25-μl volumes at 94° C. for 3 minutes, 28 cycles at 94° C. for 1 minute, 56° C. for 30 seconds, 72° C. for 40 seconds, and a final extension step at 72° C. for 5 min (p16 amplification), and 94° C. for 1 minute, 19 cycles at 94° C. for 1 minute, 58° C. for 30 seconds, 72° C. for 45 seconds, and a final extension step at 72° C. for 2 minutes (GAPDH amplification).
PCR amplifications were performed with cDNA template concentration equivalent to 100 ng of RNA in 10% DMSO. All reactions were analyzed in the linear range of amplification. PCR products were resolved on 2% agarose gels and subsequently transferred to a nylon membrane (Zetaprobe; Bio-Rad, Richmond, Calif.) under alkaline conditions. All blots were hybridized with a γ-^32P-labeled internal oligonucleotide probe, using protocols previously described (Xiong and Laird, Nuc. Acids Res. 25:2532-2534, 1997).
Since 5-Aza-CdR has been shown previously to induce p16 expression in a dose-dependent manner (Bender et al., Cancer Res. 58:95-101, 1998), the two ribonucleoside analogs 5-Aza-CR and Zeb were examined to determine their abilities to induce p16 expression (FIG. 8). Because Zeb is stable in aqueous solution, the effect of prolonging Zeb treatment on p16 expression was tested by treating these cells with different concentrations of Zeb for either 24 hours or 48 hours. RT-PCR was then performed to determine whether p16 gene was induced by drug treatment.

[4] = system: p16 promoter; experiment: Ms-SNuPE quantitation of DNA methylation in T24 cells, p16 promoter; type: cell-based, human; conditions: control 96
Description: as §1, §2
p16 promoter/exon 1: 94° C. for 3 minutes, 94° C. for 45 seconds, 67° C. for 45 seconds, and 72° C. for 45 seconds for 40 cycles, with a final extension step at 72° C. for 10 minutes.
as §3, §4

SMILES: Nc1ncn([C@@H]2O[C@H](CO)[C@@H](O)[C@H]2O)c(=O)n1 [5-Aza-CR, 5-azacytidine, reference compound]
- % Methylation ([1]; 1 μM): 65 +/− 2%
- % Methylation ([1]; 3 μM): 59% and 59 +/− 6%
- Ave. Plating Efficiency (%) ([2]; 1 μM): 21%
- decrease in plating deficiency (cytotoxicity) ([2]; 3 μM): 24%
- Ave. Plating Efficiency (%) ([2]; 3 μM): 16%
- cell death observed [2]: appreciable cell death
- p16 expression (RT-PCR) ([3]; 3 μM): no expression
- p16 expression (RT-PCR) ([3]; 100 μM): significant expression
- highest p16 expression level relative to that with 3 μM 5-Aza-CdR ([3]; 100 μM 5-Aza-CR vs 3 μM 5-Aza-CdR): one-fifth
- p16 Promoter Methylation (%) ([4]; 3 μM, 24 hrs): 91% and 91 +/− 1%
- p16 Promoter Methylation (%) ([4]; 10 μM, 24 hrs): 83 +/− 2%
- p16 Promoter Methylation (%) ([4]; 30 μM, 24 hrs): 73 +/− 2%
- p16 Promoter Methylation (%) ([4]; 100 μM, 24 hrs): 68% and 68 +/− 2%

SMILES: O=c1ncccn1[C@@H]1O[C@H](CO)[C@@H](O)[C@H]1O [Zebularine, 1-β-ribofuranosyl-1,2-dihydropyrimidin-2-one]
- % Methylation ([1]; 10 μM): 75 +/− 2%
- % Methylation ([1]; 30 μM): 58% and 58 +/− 1%
- Ave. Plating Efficiency (%) ([2]; 10 μM): 20%
- Ave. Plating Efficiency (%) ([2]; 30 μM): 18%
- decrease in plating deficiency (cytotoxicity) [2]: 17%
- cell death observed [2]: only very little cell death
- p16 expression (RT-PCR) ([3]; 300 μM for 24 hours): insufficient to induce p16 expression
- p16 expression (RT-PCR) ([3]; 300 μM for 48 hours): p16 expression was induced
- p16 expression (RT-PCR) ([3]; 500 μM for 24 hours): p16 expression was induced
- p16 Promoter Methylation (%) ([4]; 300 μM, 24 hrs): 91% and 91 +/− 1%
- p16 Promoter Methylation (%) ([4]; 300 μM, 48 hrs): 80% and 80 +/− 1%
- p16 Promoter Methylation (%) ([4]; 500 μM, 24 hrs): 85% and 85 +/− 1%
- p16 Promoter Methylation (%) ([4]; 500 μM, 48 hrs): 77% and 77 +/− 2%
- p16 Promoter Methylation (%) ([4]; 1000 μM, 24 hrs): 72% and 72 +/− 2%
- p16 Promoter Methylation (%) ([4]; 1000 μM, 48 hrs): 68% and 68 +/− 2%
